Legend:
[1] = Serum "total NAPA" in beagle dogs; assay type: in vivo; conditions: oral, last dose after 23 days
Protocol: (§1) (B)--Investigation of Serum Concentrations in Beagle Dogs
(§2) 6 Beagle dogs (3 males and 3 females) were dosed once a day (at 08.00 hrs. each day) for 23 days with Compound A, suspended in 1% gum tragacanth, which was administered orally by oesophageal tube, at a rate of either 432 mg/kg (2 dogs, 1 male and 1 female) or 675 mg/kg (4 dogs, 2 male and 2 female). During this period the dogs received their usual food and water until 16.00 hrs. on the day before the test; but from that time until 08.00 hrs. on the day of the test they were given no food, although they received their usual drinking water. The usual dosage of Compound A was however given to the animal at 08.00 hrs. on the day of the test.
Without any further feeding, serum samples were then taken from each animal 2, 4 and 6 hours after the oral administration of Compound A, thus at 10.00 hrs., 12.00 hrs. and 14.00 hrs. on the day of the test. After the 6-hour serum sample had been taken, the animals received their usual food for a while; but they were again made to fast for 12 hours from 20.00 hrs. on the day of the test until 08.00 hrs. on the following day, when the last, 24-hour serum sample was taken. […]

[2] = mouse, in vivo, po
Protocol: (A)--Investigation of Serum Concentrations in Mice
36 Charles River COBS mice (18 males and 18 females) weighing 30 g each were deprived of food for 16 hours before the trial but were given their usual drinking water. Three groups, each containing 6 males and 6 females, received a dosage of 1 ml/100 g body weight per mouse, orally by stomach tube, of a suspension in 1% gum tragacanth of respectively:
Group X: 500 mg/kg of N-acetyl-para-aminophenol
A blood sample was taken by throat-slitting from one male and one female from each Group at each study time, i.e. 1/2, 1, 2, 4 and 24 hours after the oral administration.
At times 1/2, 1, 2 and 4 hours, each serum sample was divided into three 0.1 ml trial samples for the following three determinations:

[3] = system: yeast-inflamed hind-paw pain-threshold; experiment: Analgesic activity, Randall-Selitto test in rats; assay type: in vivo, female Charles River rats; conditions: for P of pain-threshold (t-test versus control): 2 millimoles/kg oral
Protocol: (C)--Investigation of Analgesic Activity in Rats
A control group received only the gum tragacanth vehicle.
In order to evaluate the effect of the treatment upon pain-thresholds, pressure was applied both to the injected hind-paw and to the other non-injected hind-paw. The pain-threshold was noted as the pressure at which the rat flinched, measured using an Ugo Basile "Analgesimeter" for both hind-paws of each rat at intervals of 1 hour, 3 hours, 5 hours and 22 hours after the administration, and expressed as the percentage of the pain-threshold pressure for the injected (and thus inflamed) hind-paw as against the non-injected (and thus healthy) hind-paw.

[4] = Serum "free NAPA" in beagle dogs; assay type: in vivo; conditions: oral
Protocol: as §1, §2
Without any further feeding, serum samples were then taken from each animal 2, 4 and 6 hours after the oral administration of Compound A, thus at 10.00 hrs., 12.00 hrs. and 14.00 hrs. on the day of the test. After the 6-hour serum sample had been taken, the animals received their usual food for a while; but they were again made to fast for 12 hours from 20.00 hrs. on the day of the test until 08.00 hrs. on the following day, when the last, 24-hour serum sample was taken.
A direct determination similar to that used in Determination 2 above gave results for "free NAPA" as set out in Table IV below: […]

in vivo = conditions: mouse, in vivo, po
Protocol: (E)--Investigation of Acute Oral Toxicity in Mice
Charles River (CD-1 COBS) albino mice, 20-22 g in weight, were kept for some days in an air-conditioned animal house and fed with a standard diet (sterile VAR granules). They were fasted overnight before experiment, with water ad libitum. 15 Male mice and 15 female mice were used for each experiment.
N-Acetyl-para-aminophenol (NAPA) and N-acetyl-para-aminophenyl N'-acetyl-D,L-methionate (Compound A) were then administered to the mice, orally, as a suspension (shaken continuously with an electromagnetic agitator) in 5% gum arabic at a volume of 0.02 ml/g, either individually or in variously proportioned mixtures and at different dose levels, as shown in Table VII below.
A control group received only the 5% gum arabic vehicle.

[5] = Acute oral toxicity in rats; assay type: in vivo; conditions: rat, in vivo, po; for mortality at 24 h / mortality at 48 h / mortality at 72 h / mortality at 96 h / mortality at 120 h / mortality at 144 h / mortality at 168 h: Percentage Mortality
Protocol: (§3) (F)--Investigation of Acute Oral Toxicity in Rats
(§4) The investigation was carried out upon groups of 10 male and 10 female albino rats (Charles River CD-1 COBS) of 80-100 g body weight. […] Before the experiment they were fasted overnight, with water ad libitum. NAPA and Compound A were then administered orally by oesophageal intubation as suspensions (continuously shaken with an electromagnetic agitator) in 1% gum arabic at a volume of 2 ml/100 g body weight, and at dose levels of 1, 2, 4 and 8 g/kg. A control group received orally, under the same experimental conditions, merely 2 ml/100 g of the suspension vehicle. The rats were then kept under observation during seven days, while their behaviour patterns were observed and the mortality recorded

[6] = system: albino rats (Charles River CD-1 COBS); experiment: Acute oral toxicity in rats; assay type: in vivo
Protocol: as §3, §4

## CSCCC(NC(C)=O)C(=O)Oc1ccc(NC(C)=O)cc1 (racemic) [Compound A, N-acetyl-para-aminophenyl N'-acetyl-D,L-methionate]
[1]
  recovery of "total NAPA" in serum, time: up to 24 hours
[2]
  serum "total" or "enzymatic" NAPA profile: does not however give the acute peak observed at one-half an hour after the administration of NAPA+methionine
[3]; 1 millimole/kg oral (NAPA 151, A 324 mg/kg), 1 hr. (3.5 hrs. from yeast)
  Percentage Pain-Threshold (injected vs non-injected paw): 44 ± 3.8 Percentage
[3]; 1 millimole/kg oral (NAPA 151, A 324 mg/kg), 3 hrs. (5.5 hrs. from yeast)
  Percentage Pain-Threshold (injected vs non-injected paw): 41 ± 2.9 Percentage
[3]; 1 millimole/kg oral (NAPA 151, A 324 mg/kg), 5 hrs. (7.5 hrs. from yeast)
  Percentage Pain-Threshold (injected vs non-injected paw): 50 ±4.2 Percentage
[3]; 1 millimole/kg oral (NAPA 151, A 324 mg/kg), 22 hrs. (24.5 hrs. from yeast)
  Percentage Pain-Threshold (injected vs non-injected paw): 50 ± 2.4 Percentage
[3]; 2 millimoles/kg level, oral
  analgesic effect: statistically-significant analgesic effect at the 2 millimoles/kg level, which is at least as great as N-acetyl-para-aminophenol (NAPA)
[3]; 2 millimoles/kg oral (NAPA 302, A 648 mg/kg), 1 hr. (3.5 hrs. from yeast)
  Percentage Pain-Threshold (injected vs non-injected paw): 53 ± 3.3 Percentage
[3]; 2 millimoles/kg oral (NAPA 302, A 648 mg/kg), 3 hrs. (5.5 hrs. from yeast)
  Percentage Pain-Threshold (injected vs non-injected paw): 54 ±3.2 Percentage
[3]; 2 millimoles/kg oral (NAPA 302, A 648 mg/kg), 5 hrs. (7.5 hrs. from yeast)
  Percentage Pain-Threshold (injected vs non-injected paw): 59 ± 2.7 Percentage
[3]; 2 millimoles/kg oral (NAPA 302, A 648 mg/kg), 22 hrs. (24.5 hrs. from yeast)
  Percentage Pain-Threshold (injected vs non-injected paw): 54 ± 1.9 Percentage
[3]; 1 hr.
  P of pain-threshold (t-test versus control): < 0.02
[3]; 3 hrs.
  P of pain-threshold (t-test versus control): < 0.02
[3]; 5 hrs.
  P of pain-threshold (t-test versus control): < 0.01
[3]; 22 hrs.
  P of pain-threshold (t-test versus control): < 0.01
[4]; 23 days
  hydrolysis in vivo: easily hydrolyzed
[4]; last dose after 23 days
  recovery of "free NAPA" in serum, time: up to 6 hours
In vivo
  LD50 at 24 h: ≥ 4000 mg/kg
  LD50 at 168 h: ≥ 4000 mg/kg
[5]
  LD50 at 24 h: > 8000 mg/kg
  LD50 at 168 h: > 8000 mg/kg
[5]; 1000 mg/kg
  mortality at 24 h: 0%
  mortality at 48 h: 0%
  mortality at 72 h: 0%
  mortality at 96 h: 0%
  mortality at 120 h: 0%
  mortality at 144 h: 0%
  mortality at 168 h: 0%
[5]; 2000 mg/kg
  mortality at 24 h: 0%
  mortality at 48 h: 0%
  mortality at 72 h: 0%
  mortality at 96 h: 0%
  mortality at 120 h: 0%
  mortality at 144 h: 0%
  mortality at 168 h: 0%
[5]; 4000 mg/kg
  mortality at 24 h: 0%
  mortality at 48 h: 0%
  mortality at 72 h: 0%
  mortality at 96 h: 0%
  mortality at 120 h: 0%
  mortality at 144 h: 0%
  mortality at 168 h: 0%
[5]; 8000 mg/kg
  mortality at 24 h: 0%
  mortality at 48 h: 0%
  mortality at 72 h: 0%
  mortality at 96 h: 0%
  mortality at 120 h: 0%
  mortality at 144 h: 0%
  mortality at 168 h: 0%
[6]; oral, rats
  toxicity compared with NAPA: far less toxic than NAPA
[6]; oral, rats, 1-8 g/kg
  mortality (in words): no mortality was recorded at any of the different dose levels
[6]; rat, in vivo, po
  mortality (in words): did not induce any mortality at dose levels up to 8 g/kg

— patent US4361703A, “Para-amino(or nitro)phenyl N-acetylaminothioalkanoates” (priority 1977, dated 1982)
